We go through nine compounds from ChEMBL document CHEMBL3608206, “Phenolic 4-hydroxy and 3,5-dihydroxy derivatives of 3-phenoxyquinoxalin-2(1H)-one as potent aldose reductase inhibitors with antioxidant activity” (Bioorg Med Chem Lett, 2015).

Series [1] is described as follows: Antioxidant activity assessed as DPPH radical scavenging activity at 100 uM after 240 mins by spectrophotometric analysis relative to control. Type of series: physicochemical. Conditions: 4 h. Background: The DPPH test is a chemical assay of radical scavenging.
Series [2] concerns Brain. As to the kind of experiment: Antioxidant activity in rat brain assessed as inhibition of MDA production at 100 uM by TBARS assay relative to control. Type of series: functional.
The target in series [3] is Aldo-keto reductase family 1 member B1 (Rattus norvegicus, UniProt P07943). As to the kind of experiment: Inhibition of Wistar rat ALR2 using D,L-glyceraldehyde as substrate assessed as oxidation of NADPH preincubated for 10 mins followed by substrate addition measured for 4 mins by spectrophotometric analysis.
Series [4] is described as follows: Antioxidant activity assessed as DPPH radical scavenging activity at 50 uM after 240 mins by spectrophotometric analysis relative to control. Type of series: physicochemical. The following applies: 4 h.
The subject of series [5] is Brain. As to the kind of experiment: Antioxidant activity in rat brain assessed as inhibition of MDA production at 10 uM by TBARS assay relative to control. Type of series: functional.
Series [6] concerns the target Aldo-keto reductase family 1 member B1 (Rattus norvegicus) (UniProt P07943). The series is described as follows: Inhibition of Wistar rat ALR2 using D,L-glyceraldehyde as substrate assessed as oxidation of NADPH at 10 uM preincubated for 10 mins followed by substrate addition measured for 4 mins by spectrophotometric analysis relative to control.

What is called inhibition is the relative decrease from the control value, in per cent. Usually IC50 stands for the concentration needed to halve the response being measured. As for `O=C(O)Cn1c(=O)c(Oc2ccc(O)cc2)nc2cc(F)ccc21`, the Activity in series [1] turned out to be 23.7%. In addition, the inhibition at 100 µM in the series on Brain [2] is 14.3%. Moreover, the half-maximal inhibitory concentration (IC50) in series [3] was determined as 19.6 nM.

Turning to `O=C(O)Cn1c(=O)c(Oc2ccc(O)cc2)nc2ccccc21`, in series [1], the Activity came out at 21.3%. Also, the inhibition at 100 µM in the series on Brain [2] was 12.3%. The IC50 in series [3] came out at 374 nM.

Regarding `Cc1c(C)c2c(c(C)c1O)CCC(C)(C(=O)O)O2` (stereo not drawn) [TROLOX], the Activity is 96.7% in series [1] and 93.3% in series [4]. Besides, the inhibition at 100 µM in the series on Brain [2] came out at 71.3%. In the series on Brain [5], the inhibition at 10 µM came to 90.1%.

As to `O=C(O)Cn1c(=O)c(Oc2ccc(O)cc2)nc2ccc(Cl)cc21`, the Activity in series [1] came out at 84.8%; in series [4], 47.3%. In the series with Brain [2], the inhibition at 100 µM came to 49.4%. For the same compound, in series [3], the IC50 came out at 179 nM. Also, in the series with Brain [5], the inhibition at 10 µM was 10.1%.

On to `O=C(O)Cn1c(=O)c(Oc2cc(O)cc(O)c2)nc2ccc(F)cc21`, for which the values for the Activity in series [1] and in series [4] were 38.2% and 29.3%, respectively. In addition, in the series with Brain [2], the inhibition at 100 µM was 20.3%. In addition, in series [6], the inhibition turned out to be 34%. In the series with Brain [5], the inhibition at 10 µM was 9.3%.

On to `O=C(O)Cn1c(=O)c(Oc2cc(O)cc(O)c2)nc2cc(F)ccc21`, for which, in series [1], the Activity worked out at 25.4%. In addition, the inhibition at 100 µM with Brain [2] worked out at 15.5%. Also, in series [3], the IC50 amounted to 130 nM.

In the case of `O=C(O)Cn1c(=O)c(Oc2cc(O)cc(O)c2)nc2cc(Cl)ccc21`, the Activity in series [1] is given as 56.5%; in series [4], 34.5%. Also, in the series on Brain [2], the inhibition at 100 µM came to 24.5%. The IC50 in series [3] is 982 nM. The inhibition at 10 µM in the series with Brain [5] came to 8.1%.

`O=C(O)Cn1c(=O)c(Oc2cc(O)cc(O)c2)nc2ccccc21`: the Activity was determined as 67.4% in series [1] and 46.5% in series [4]. Also, the inhibition at 100 µM in the series on Brain [2] is 34.5%. Also, the IC50 in series [3] amounted to 940 nM. In the series with Brain [5], the inhibition at 10 µM came to 5.7%.

Regarding `O=C(O)Cn1c(=O)c(Oc2cc(O)cc(O)c2)nc2ccc(Cl)cc21`, the Activity worked out at 91.3% in series [1] and 83.7% in series [4]. Moreover, the inhibition at 100 µM in the series with Brain [2] is 55.3%. Also, in series [3], the IC50 is 566 nM. The inhibition at 10 µM with Brain [5] is 26.6%.
